Results published in BindingDB's records for doi:10.1021/jm00110a015 (Virginia Commonwealth University, 1991).

Assay: In vitro binding affinity at PCP binding site of sigma-opioid receptors using (+)-[3H]-MK-801 as radioligand

Row | Structure (SMILES) | IC50 [nM]
1 | COc1ccc(CC(C)NCCCc2ccccc2)cc1 (configuration not stated) | > 10000
2 | CC(Cc1ccc(I)cc1)NCCCc1ccccc1 (configuration not stated) | > 10000

Assay: Inhibition of [3H]DTG binding to Sigma opioid receptor

Row | Structure (SMILES) | Ki [nM]
3 | CCCc1ccc(CC(C)NCCCc2ccccc2)cc1 (configuration not stated) | 6.2
4 | c1ccc(CCCNC2Cc3ccccc3C2)cc1 | 27
5 | c1ccc(CCCNC2CCCc3ccccc3C2)cc1 (configuration not stated) | 83
6 | CC(Cc1cccc(C(F)(F)F)c1)NCCCc1ccccc1 (configuration not stated) | 3.9
7 | CC(Cc1cccc(Br)c1)NCCCc1ccccc1 (configuration not stated) | 6
